Measured values published in PubChem BioAssay (NCI).
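Cells were grown in 96-well plates and exposed to each compound for 48 hours at five concentrations; endpoints were interpolated linearly between bracketing concentrations, or set to the highest concentration if not reached. The concentration for full growth arrest is given as TGI.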

Key:
Assay in all cases: NCI tumour cell line growth inhibition, 48 h
DLD-1 colon = system: DLD-1 colon
DMS 114 small cell lung = system: DMS 114 small cell lung
DMS 273 small cell lung = system: DMS 273 small cell lung
HOP-18 NSCLC = system: HOP-18 NSCLC
M19-MEL melanoma = system: M19-MEL melanoma
P388 leukemia = system: P388 leukemia
P388/ADR leukemia = system: P388/ADR leukemia
SN12K1 renal = system: SN12K1 renal
SNB-78 CNS = system: SNB-78 CNS
XF 498 CNS = system: XF 498 CNS

Measured: TGI

Nc1ccc2c(c1)C1=NNC(=O)CC1C2 (configuration not stated)
> 100 µM: all assays above

CC1SC(c2ccccc2)N(Nc2c3ccccc3nc3ccccc23)C1=O (configuration not stated)
> 100 µM: DLD-1 colon | DMS 114 small cell lung | DMS 273 small cell lung | M19-MEL melanoma | SNB-78 CNS | XF 498 CNS

CNC(C)Cc1ccccc1O (configuration not stated)
> 100 µM: DLD-1 colon | DMS 114 small cell lung | DMS 273 small cell lung | HOP-18 NSCLC | SNB-78 CNS

COc1cc2cc[n+](C)c(Cc3ccccc3)c2cc1OC
> 100 µM: DMS 114 small cell lung | DMS 273 small cell lung | HOP-18 NSCLC | M19-MEL melanoma | SNB-78 CNS

O=S1(=O)NNC(=NCc2ccc(Cl)c(Cl)c2)c2ccccc21
> 100 µM: DLD-1 colon | DMS 114 small cell lung | DMS 273 small cell lung | HOP-18 NSCLC | M19-MEL melanoma | SNB-78 CNS
